According to patent publication US8481567B2, “Sigma receptor compounds” (Laboratorios del Dr. Esteve, S.A., priority 2006, dated 2013):

Legend:
[1] = target: sigma-1 site (Homo sapiens, UniProt Q99720); conditions: statement in words, background section; cited from earlier work
[2] = target: sigma-2 site (Homo sapiens, UniProt Q5BJF2); conditions: statement in words, background section; cited from earlier work
Chain of sigma-2 site (Q5BJF2 whole entry): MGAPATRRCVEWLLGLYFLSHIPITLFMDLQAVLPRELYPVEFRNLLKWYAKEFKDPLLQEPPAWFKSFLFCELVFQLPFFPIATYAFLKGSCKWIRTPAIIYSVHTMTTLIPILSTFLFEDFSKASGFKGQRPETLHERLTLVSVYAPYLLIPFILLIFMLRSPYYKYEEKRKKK

Chain of sigma-1 site (Q99720 whole entry): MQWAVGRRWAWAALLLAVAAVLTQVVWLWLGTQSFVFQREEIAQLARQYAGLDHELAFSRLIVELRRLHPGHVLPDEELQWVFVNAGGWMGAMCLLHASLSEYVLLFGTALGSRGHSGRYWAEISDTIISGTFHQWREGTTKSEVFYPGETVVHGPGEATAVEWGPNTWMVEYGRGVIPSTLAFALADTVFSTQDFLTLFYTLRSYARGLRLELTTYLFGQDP

Molecule	melting point [°C]	affinity for the sigma-1 site [1]	affinity for the sigma-2 site [2]
Cn1ccc2c1CCCC2CCN1CCC(c2ccccc2)CC1.O=C(O)C(=O)O (stereo not shown)	86 to 90	–	–
SKF 10047	–	nanomolar	micromolar
Cn1ccc2c1CCCC2CCN1CCC(O)(c2ccc(Cl)cc2)CC1.O=C(O)C(=O)O (stereo not shown)	154 to 155	–	–
